Calls of active or inactive are those of the source. The calls are words filed in the database; no cut-off is given here.

The test system of data set [1] is RAW264.7. The experiment in a line: Antiinflammatory activity in mouse RAW264.7 cells assessed as inhibition of LPS-induced nitric oxide production preincubated for 12 hrs followed by LPS-stimulation and measured after 24 hrs by Griess assay. Type of data set: functional, cell-based. In general terms: Nitrite, measured by Griess reagent, commonly stands in for NO production.

The test system of data set [2] is HepG2. The experiment in a line: Cytotoxicity against human HepG2 cells measured after 48 hrs by MTS assay. It is filed as cell-based. As to conditions: hepg2, 48 h. Background: Tetrazolium dyes change colour on reduction, which living cells bring about.
Data set [3] addresses Histone deacetylase (Homo sapiens) (UniProt Q13547+O15379+Q9UBN7+Q92769+Q9UQL6+Q8WUI4+Q9BY41+Q96DB2+P56524+Q9UKV0+Q969S8). The experiment in a line: Inhibition of HDAC in human HeLa nuclear extracts using Boc-Lys(Ac)-AMC as substrate by fluorescence assay. It is filed as cell-free.
A further data set deals with Bacillus subtilis. The experiment in a line: Antibacterial activity against Bacillus subtilis measured after 24 hrs by broth microdilution assay. Type of data set: functional, organism-based. In general terms: Broth dilution looks for growth in wells or tubes with falling amounts of substance.
Another data set has as its system MDA-MB-231. The experiment in a line: Cytotoxicity against human MDA-MB-231 cells measured after 48 hrs by MTS assay. To be noted: mda-mb-231, 48 h. Type of data set: cell-based.
Another data set deals with Aeromonas hydrophila. The experiment in a line: Antibacterial activity against Aeromonas hydrophila measured after 24 hrs by broth microdilution assay. Type of data set: functional, organism-based.
A further data set has as its system HCT-116. The experiment in a line: Cytotoxicity against human HCT116 cells measured after 48 hrs by MTS assay. It is filed as cell-based. To be noted: hct-116, 48 h.
The next data set concerns Escherichia coli. The experiment in a line: Antibacterial activity against Colon bacillus measured after 24 hrs by broth microdilution assay. It is filed as functional, organism-based.
A further data set concerns Staphylococcus aureus. The experiment in a line: Antibacterial activity against Staphylococcus aureus measured after 24 hrs by broth microdilution assay. Type of data set: functional, organism-based.
The next data set has as its system HeLa. The experiment in a line: Cytotoxicity against human HeLa cells measured after 48 hrs by MTS assay. Type of data set: cell-based.
Data set [4] deals with HepG2. The experiment in a line: Lipid lowering activity in human HepG2 cells assessed as reduction in oleic acid-induced lipid accumulation after 24 hrs by oil red O staining based spectrophotometric method. It is filed as functional, cell-based.
The subject of a further data set is A549. The experiment in a line: Cytotoxicity against human A549 cells measured after 48 hrs by MTS assay. Type of data set: cell-based. To be noted: a549, 48 h.
Data set [5] concerns the target T1, NF-kappa-B inhibitor alpha (Mus musculus) (UniProt Q9Z1E3).
T1 sequence (whole entry): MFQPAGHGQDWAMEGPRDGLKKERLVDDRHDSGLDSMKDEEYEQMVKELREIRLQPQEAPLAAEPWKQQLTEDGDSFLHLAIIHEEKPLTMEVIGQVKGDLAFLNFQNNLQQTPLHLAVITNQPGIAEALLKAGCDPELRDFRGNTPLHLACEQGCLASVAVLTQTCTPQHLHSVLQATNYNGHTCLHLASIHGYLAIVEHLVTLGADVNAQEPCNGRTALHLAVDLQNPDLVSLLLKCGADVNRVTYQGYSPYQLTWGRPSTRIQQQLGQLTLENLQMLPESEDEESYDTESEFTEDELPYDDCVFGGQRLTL
The experiment in a line: Inhibition of IkappaBalpha phosphorylation in LPS-stimulated mouse RAW264.7 cells at 20 to 40 uM preincubated for 12 hrs followed by LPS stimulation and measured after 24 hrs by Western blot analysis. Type of data set: cell-based.

Data set [6] concerns the target Transcription factor p65 (Mus musculus) (UniProt Q04207). The experiment in a line: Inhibition of NFkappaB p65 phosphorylation in LPS-stimulated mouse RAW264.7 cells at 20 to 40 uM preincubated for 12 hrs followed by LPS stimulation and measured after 24 hrs by Western blot analysis. It is filed as cell-based.
For data set [7], the system named is RAW264.7. The experiment in a line: Antiinflammatory activity in mouse RAW264.7 cells assessed as inhibition of LPS-induced TNFalpha production preincubated for 12 hrs followed by LPS-stimulation and measured after 24 hrs by ELISA. Type of data set: functional, cell-based.
For data set [8], the system named is RAW264.7. The experiment in a line: Antiinflammatory activity in mouse RAW264.7 cells assessed as inhibition of LPS-induced IL-6 production preincubated for 12 hrs followed by LPS-stimulation and measured after 24 hrs by ELISA. It is filed as functional, cell-based.

Chain of Transcription factor p65 (Mus musculus) (Q04207 whole entry): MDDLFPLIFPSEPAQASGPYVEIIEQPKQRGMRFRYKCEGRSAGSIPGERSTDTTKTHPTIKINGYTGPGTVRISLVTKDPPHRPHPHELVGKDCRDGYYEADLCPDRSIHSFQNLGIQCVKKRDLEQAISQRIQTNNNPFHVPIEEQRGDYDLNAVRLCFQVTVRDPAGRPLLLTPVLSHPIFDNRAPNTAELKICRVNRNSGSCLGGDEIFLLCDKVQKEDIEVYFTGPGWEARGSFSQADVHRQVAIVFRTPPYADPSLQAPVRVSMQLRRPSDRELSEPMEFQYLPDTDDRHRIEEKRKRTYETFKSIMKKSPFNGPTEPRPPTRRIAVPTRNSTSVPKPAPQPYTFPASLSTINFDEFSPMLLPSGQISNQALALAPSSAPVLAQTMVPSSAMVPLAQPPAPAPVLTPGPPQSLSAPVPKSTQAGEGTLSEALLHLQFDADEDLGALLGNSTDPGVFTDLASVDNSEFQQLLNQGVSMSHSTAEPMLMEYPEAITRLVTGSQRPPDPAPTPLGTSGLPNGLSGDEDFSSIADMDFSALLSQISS

On to `C[C@@H]1C[C@H]2[C@@H]3CCC4=CC(=O)C=C[C@]4(C)[C@@]3(F)[C@@H](O)C[C@]2(C)[C@@]1(O)C(=O)CO` [DEXAMETHASONE], for which the IC50 in the data set with RAW264.7 [1] was found to be 18.4 µM.
In the case of `CC(C)[C@H]1C(=O)O[C@H]([C@@H](C)CCCC[C@@H](C)O)C[C@@H](O)[C@@H](C)C(=O)N[C@H](Cc2ccccc2)C(=O)N1C`, the Activity entry in the data set on HepG2 [2], with MDA-MB-231, in the data set on HCT-116, in the data set with HeLa and in the data set with A549 was “Non-Toxic” in each case. Besides, in data set [3], the inhibition result was “inactive”. Besides, the outcome in the data set with Bacillus subtilis, in the data set on Aeromonas hydrophila, in the data set on Escherichia coli and in the data set with Staphylococcus aureus was inactive. Besides, the result in the data set with HepG2 [4] was Active. In the data set with RAW264.7 [1], the IC50 amounted to 13.5 µM. For the same compound, the inhibition result in data set [5] and in data set [6] was “Active” each time.
On to `CC(C)C[C@H]1C(=O)O[C@H]([C@@H](C)CCCC[C@@H](C)O)C[C@@H](O)[C@@H](C)C(=O)N[C@H](Cc2ccccc2)C(=O)N1C`, for which the Activity entry in the data set on HepG2 [2], with MDA-MB-231, in the data set on HCT-116, in the data set with HeLa and with A549 was “Non-Toxic” in each case. Also, the inhibition entry in data set [3] was “inactive”. Also, the outcome in the data set with Bacillus subtilis, with Aeromonas hydrophila, in the data set on Escherichia coli and in the data set with Staphylococcus aureus was inactive. For the same compound, in the data set on HepG2 [4], the result was Active. The IC50 with RAW264.7 [1] turned out to be 38.7 µM.
In the case of `CC[C@H](C)[C@H]1C(=O)O[C@H]([C@@H](C)CCCC[C@@H](C)O)C[C@@H](O)[C@@H](C)C(=O)N[C@H](Cc2ccccc2)C(=O)N1C`, the Activity result in the data set with HepG2 [2], in the data set with MDA-MB-231, with HCT-116, in the data set with HeLa and in the data set with A549 was “Non-Toxic” in each case. Besides, in [3], the inhibition entry is “inactive”. Also, the outcome in the data set with Bacillus subtilis, in the data set on Aeromonas hydrophila, in the data set on Escherichia coli and in the data set on Staphylococcus aureus was inactive. Also, the inhibition entry with RAW264.7 [7] and with RAW264.7 [8] was “Dose-dependent effect” in each case. Moreover, the outcome in the data set on HepG2 [4] was Active. In addition, the IC50 with RAW264.7 [1] is 8.3 µM. Moreover, the inhibition entry in [5] and in data set [6] was “Active” each time.
For `CC[C@H](C)[C@H]1C(=O)O[C@@H](CCCCC[C@@H](C)O)C[C@@H](O)[C@@H](C)C(=O)N[C@H](Cc2ccccc2)C(=O)N1C`, the Activity result in the data set with HepG2 [2], with MDA-MB-231, with HCT-116, in the data set on HeLa and in the data set with A549 was “Non-Toxic” throughout. Moreover, the inhibition result in data set [3] was “inactive”. For the same compound, the outcome in the data set with Bacillus subtilis, in the data set with Aeromonas hydrophila, in the data set on Escherichia coli and in the data set on Staphylococcus aureus was inactive. For the same compound, the outcome with HepG2 [4] was Active. The IC50 in the data set with RAW264.7 [1] stood at 22.2 µM.

What is called IC50 is the midpoint of a concentration-inhibition curve.

The record behind these values is ChEMBL document CHEMBL4339236, “Colletopeptides A-D, Anti-inflammatory Cyclic Tridepsipeptides from the Plant Endophytic Fungus Colletotrichum sp. S8” (J Nat Prod, 2019).
